In publication PMC9929129, “Towards Translation of PqsR Inverse Agonists: From In Vitro Efficacy Optimization to In Vivo Proof‐of‐Principle” (Advanced Science, 2023):
≈ marks a conversion by molar mass, not a printed value. Like-named read-outs stand apart in the source and are kept apart here.

Key:
[1] = test system: Bronchiectasis clinical isolates, PA14 and PAO1; assay: Antimicrobial minimal inhibitory concentrations (MIC), microdilution; conditions: Pseudomonas aeruginosa
ENaC channel = biological target: T1, ENaC channel (Homo sapiens, UniProt P37088+P51168+P51170); assay: Ion channel profiling at Charles River: ENaC; type: cell-based
T1 construct: host or cells: HEK293 cells
T1 sequence (P51170 whole entry): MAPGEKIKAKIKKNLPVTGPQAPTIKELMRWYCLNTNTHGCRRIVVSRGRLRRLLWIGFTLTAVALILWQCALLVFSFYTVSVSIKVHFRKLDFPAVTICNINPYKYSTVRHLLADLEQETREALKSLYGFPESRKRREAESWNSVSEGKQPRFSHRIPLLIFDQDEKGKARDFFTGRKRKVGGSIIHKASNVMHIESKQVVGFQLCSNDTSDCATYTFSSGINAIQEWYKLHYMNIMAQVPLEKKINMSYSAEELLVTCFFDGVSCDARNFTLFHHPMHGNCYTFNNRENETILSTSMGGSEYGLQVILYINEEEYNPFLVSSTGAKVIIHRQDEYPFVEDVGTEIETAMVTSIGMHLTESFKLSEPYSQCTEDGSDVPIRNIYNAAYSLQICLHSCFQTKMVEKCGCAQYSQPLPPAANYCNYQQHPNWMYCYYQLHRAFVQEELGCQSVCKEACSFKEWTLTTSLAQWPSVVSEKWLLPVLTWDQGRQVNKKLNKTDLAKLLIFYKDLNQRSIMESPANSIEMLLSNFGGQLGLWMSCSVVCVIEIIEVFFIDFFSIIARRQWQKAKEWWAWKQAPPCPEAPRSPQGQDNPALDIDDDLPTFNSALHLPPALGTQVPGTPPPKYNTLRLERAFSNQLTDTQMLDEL
T1 sequence (P37088 whole entry): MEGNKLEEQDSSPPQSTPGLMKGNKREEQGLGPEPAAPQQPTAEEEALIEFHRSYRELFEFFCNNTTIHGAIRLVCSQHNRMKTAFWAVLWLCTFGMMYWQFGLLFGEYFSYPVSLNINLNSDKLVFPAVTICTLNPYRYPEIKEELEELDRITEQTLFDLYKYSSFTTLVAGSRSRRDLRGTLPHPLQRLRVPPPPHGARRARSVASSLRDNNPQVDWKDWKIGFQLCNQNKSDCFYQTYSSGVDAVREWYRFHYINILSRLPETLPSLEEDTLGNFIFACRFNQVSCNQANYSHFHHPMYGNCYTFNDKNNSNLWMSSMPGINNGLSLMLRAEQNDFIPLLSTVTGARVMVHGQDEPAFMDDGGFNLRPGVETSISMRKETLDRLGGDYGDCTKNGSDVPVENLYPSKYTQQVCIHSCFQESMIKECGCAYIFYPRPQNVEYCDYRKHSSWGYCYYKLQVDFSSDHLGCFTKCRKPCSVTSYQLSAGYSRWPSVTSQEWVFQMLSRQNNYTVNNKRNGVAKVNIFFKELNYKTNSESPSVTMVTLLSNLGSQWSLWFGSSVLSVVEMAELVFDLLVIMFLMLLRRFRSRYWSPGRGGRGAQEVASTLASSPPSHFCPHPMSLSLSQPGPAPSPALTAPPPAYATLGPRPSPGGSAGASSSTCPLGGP
T1 sequence (P51168 whole entry): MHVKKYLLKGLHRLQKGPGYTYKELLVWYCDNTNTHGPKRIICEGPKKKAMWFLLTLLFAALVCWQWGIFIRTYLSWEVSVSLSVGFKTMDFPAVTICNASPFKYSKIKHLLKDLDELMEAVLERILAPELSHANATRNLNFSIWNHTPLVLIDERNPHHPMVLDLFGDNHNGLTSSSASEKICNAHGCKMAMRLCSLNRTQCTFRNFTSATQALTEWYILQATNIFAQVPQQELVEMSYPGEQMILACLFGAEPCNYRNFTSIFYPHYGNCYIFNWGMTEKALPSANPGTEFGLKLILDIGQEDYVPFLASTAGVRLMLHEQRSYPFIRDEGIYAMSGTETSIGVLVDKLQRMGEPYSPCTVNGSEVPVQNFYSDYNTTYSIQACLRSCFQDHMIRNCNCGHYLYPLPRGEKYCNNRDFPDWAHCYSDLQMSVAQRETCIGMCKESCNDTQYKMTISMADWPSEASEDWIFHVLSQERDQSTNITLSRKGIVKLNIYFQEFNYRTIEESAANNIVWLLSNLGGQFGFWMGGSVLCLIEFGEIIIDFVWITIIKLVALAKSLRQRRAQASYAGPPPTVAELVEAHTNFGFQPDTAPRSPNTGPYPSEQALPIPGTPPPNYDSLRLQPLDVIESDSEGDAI
Method: 1.4.3 Ion Channel Profiling at Charles River
Table S9. Compound 24 was tested against the following ion channels at Charles River Laboratories.
ASSAY TYPE ION CHANNEL AND EXPRESSION SYSTEM ESTIMATED […]
ScreenPatch Assay Kv1.3 potassium channel (human KCNA3 gene) expressed in CHO
ENaC channel (human SCNN1A, SCNN1B and SCNN1G genes, >30
(§1) FLIPR Assay expressed in HEK293 cells
(§2) GABAA α5/β3/γ2 ionotropic receptor (human GABRA5, GABRB3, >30
(§3) and GABRG2 genes, expressed in HEK293 cells

[2] = test system: Pseudomonas aeruginosa strain PA14; assay: Alkylquinolone quantification, strain PA14; type: cell-based
Method: 1.2.2 Pyocyanin assay in Pseudomonas aeruginosa
Inhibition of pyocyanin biosynthesis of compounds was measured spectrophotometrically as previously described.[2] Pseudomonas aeruginosa PA14 was grown in rich medium for 16 h under agitation with and without compound. Pyocyanin was extracted from cultures with chloroform, then re-extracted with 0.2 M HCl and quantified photometrically (520 nm). IC50 values were determined from dose-response curves of compounds using at least six different concentrations and fitting with non-linear regression analysis (OriginPro 2017–2020, Originlab Corporation).
1.2.3 Alkylquinolone quantification
Inhibition of alkylquinolone (AQ) signal molecule biosynthesis of compound 24 was analyzed via LC-ESI-MS/MS. Extracellular concentrations of the AQs PQS (2-heptyl-3-hydroxy-4-quinolone), HHQ (2-heptyl-4-quinolone), HQNO (N-oxo-2-heptyl-4-Hydroxyquinoline), 2-AA (2-aminoacetophenone) were measured from supernatants of cultures incubated with or without compound for 17 h. 5,6,7,8-Tetradeutero-2-heptyl-4(1H)-quinolone (HHQ-d4) was added as internal standard before sample preparation. IC50 values were calculated according to the procedure of the pyocyanin assay (see above). LC-ESI-MS/MS conditions were as follows: Dionex Ultimate 3000 HPLC instrument parameters: Zorbax Eclipse XDB 80 Å C18 5 µm 4.6 x 50 mm (Agilent, Santa Clara, CA, USA); eluent A – H2O with 0.1% trifluoroacetic acid (TFA), 0.1% pentafluoropropionic acid (PFPA), 0.1% heptafluorobutyric acid (HFBA); eluent B – acetonitrile with 0.1% TFA, 0.1% PFPA, 0.1% HFBA; isocratic 50% A; flow – 0.7 mL/min. TSQ Quantum Access Max (Thermo Fisher Scientific, Waltham, MA, USA) instrument parameters: Spray voltage 3500 V, vaporizer temperature 370 °C, sheath gas pressure 35 psi, aux gas pressure 30 psi, capillary temperature 270 °C, collision pressure 1.5 mTorr, positive ionization mode. For AQ analyte reaction monitoring parameters please see Table S1.
Table S1. LC-ESI-MS/MS reaction monitoring parameters of AQ analytes in positive ionization mode. […]
Six replicates per sample were distributed evenly across the plate, with every row containing one replicate of each sample. The well plate was covered with the peg lid. One layer of parafilm was wrapped around the biofilm inoculator. The inoculator was incubated at 37 °C, static for 24 h with a beaker of H2O ensuring humidity. Alternatively, the plate was incubated using only LB for 8 h prior to addition of DMSO/24 to give 1% DMSO, followed by another 16 h incubation under the same […]
After 24 h, the plate was removed from the incubator and the peg lid was transferred to a fresh 96 well plate (Nunc U bottom, Thermo Fisher, Dreieich, Germany) containing the respective target

[3] = Kinetic turbidimetric aqueous solubility; conditions: PBS buffer, kinetic from dmso stock
[4] = Apparent permeability in Calu-3 cell line; type: in vitro ADME; conditions: human; air–liquid interface
[5] = biological target: T2, NET human norepinephrine transporter (Homo sapiens, UniProt P23975); assay: NET functional antagonist uptake assay (Eurofins); type: cell-based
T2 construct: Eurofins 302000
T2 sequence (P23975 whole entry): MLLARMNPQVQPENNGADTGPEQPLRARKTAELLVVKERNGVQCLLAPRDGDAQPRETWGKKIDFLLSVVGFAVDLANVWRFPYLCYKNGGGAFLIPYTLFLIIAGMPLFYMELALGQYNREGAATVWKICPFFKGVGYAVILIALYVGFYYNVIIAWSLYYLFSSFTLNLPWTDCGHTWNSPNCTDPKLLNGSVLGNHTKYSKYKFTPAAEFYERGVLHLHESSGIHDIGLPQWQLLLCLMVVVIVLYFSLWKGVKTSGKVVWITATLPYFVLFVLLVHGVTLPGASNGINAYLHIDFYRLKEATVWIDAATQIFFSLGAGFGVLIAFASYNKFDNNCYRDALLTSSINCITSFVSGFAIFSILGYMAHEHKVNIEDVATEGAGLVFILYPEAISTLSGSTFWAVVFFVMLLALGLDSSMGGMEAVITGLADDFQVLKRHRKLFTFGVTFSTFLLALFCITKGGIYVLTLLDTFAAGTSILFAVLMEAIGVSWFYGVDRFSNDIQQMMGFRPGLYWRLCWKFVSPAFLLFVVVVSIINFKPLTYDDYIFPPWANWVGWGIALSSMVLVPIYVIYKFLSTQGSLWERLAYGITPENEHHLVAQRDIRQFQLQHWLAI
Method: 1.4.2 Further functional off-target assays (Eurofins)
Table S8. Compound 24 was further tested in the following functional assays at Eurofins.
ASSAY NAME ESTIMATED IC50 [µM]
NET human norepinephrine transporter functional antagonist uptake >10 µM […]
as §1, §2, §3

Work on NC[C@H]1O[C@H](O[C@H]2[C@H](O)[C@@H](O[C@H]3O[C@H](CO)[C@@H](O)[C@H](N)[C@H]3O)[C@H](N)C[C@@H]2N)[C@H](N)C[C@@H]1O [Tobramycin, tobramycin] yielded an MIC ([1]; PA14|PAO1, strain column 1 of 16 (strain heads not assignable)) of 1 µg/mL (≈ 2.14 µM), an MIC ([1]; strain column 2 of 16) of 1 µg/mL (≈ 2.14 µM) and an MIC ([1]; strain column 3 of 16) of no more than 0.5 µg/mL. It also gave an MIC ([1]; strain column 4 of 16) of no more than 0.5 µg/mL, an MIC ([1]; strain column 5 of 16) of no more than 0.5 µg/mL and an MIC ([1]; strain column 6 of 16) of no more than 0.5 µg/mL. For the same molecule, the MIC ([1]; strain column 7 of 16) was no more than 0.5 µg/mL, the MIC ([1]; strain column 8 of 16) was 2 µg/mL (≈ 4.28 µM) and the MIC ([1]; strain column 9 of 16) was 1 µg/mL (≈ 2.14 µM). It also gave an MIC ([1]; strain column 10 of 16) of no more than 0.5 µg/mL, an MIC ([1]; strain column 11 of 16) of no more than 0.5 µg/mL and an MIC ([1]; strain column 12 of 16) of no more than 0.5 µg/mL. It also gave an MIC ([1]; strain column 13 of 16) of no more than 0.5 µg/mL, an MIC ([1]; strain column 14 of 16) of no more than 0.5 µg/mL and an MIC ([1]; strain column 15 of 16) of no more than 0.5 µg/mL. For the same molecule, the MIC ([1]; strain column 16 of 16) was no more than 0.5 µg/mL.
Molecule CC(C)Oc1ccc(-c2ncc(CNc3ccnc(C(F)(F)F)c3)cn2)cc1Cl [Compound 24] has an IC50 (ENaC channel) greater than 30000 nM, an IC50 ([2]; PA14, 17 h, read-out: IC50 PA14, 2‐AA biosynthesis) of 386 nM and an IC50 ([2]; PA14, 17 h, read-out: IC50 PA14, HHQ biosynthesis) of 233 nM. The IC50 ([2]; PA14, 17 h, read-out: IC50 PA14, HQNO biosynthesis) was 347 nM, the IC50 ([2]; PA14, 17 h, read-out: IC50 PA14, PQS biosynthesis) was 349 nM and the IC50 ([2]; PA14, read-out: IC50 values for individual AQs) was 160 to 453 nM. The solubility kinetic at 5 min [3] was 47.2 µM (≈ 20 µg/mL), the Papp at 4 h [4] was 3.1 ± 0.28 ×10⁻⁶ cm/s and the IC50 [5] was greater than 10000 nM.
